Measured values published in article PMC3720542, “Population pharmacokinetics of mefloquine, piperaquine and artemether-lumefantrine in Cambodian and Tanzanian malaria patients” (Malaria Journal, 2013).
Values after ≈ are worked out from the molar mass of the structure shown. Values joined by “and” are separate entries in the source; they are usually repeats but may differ in a detail not shown here. Equal values may be shown once. Read-outs that look alike come from different tables or passages of the source. Blank lines part the entries; values can stand above or below the molecule they belong to.

Experiments:
[1] = Population pharmacokinetic analysis (NONMEM) of artemether-lumefantrine and metabolites in Tanzanian malaria patients (Kibaoni); type: in vivo, human
Protocol: Three studies have been conducted, one in Tanzania and two in Cambodia. The study profiles are described in Figure 1. The first study was performed during March to May 2008 at the Kibaoni Health Centre, Kilombero district, Morogoro region, Tanzania. […] Six AM-LF (Coartem®, Novartis Pharma, Switzerland) doses were administered at time 0, 8, […] according to body weight (see Table 1); patients were either admitted for three days or asked to come back to the health facility for each drug administration. Mothers of breastfed patients were encouraged to feed their children and patients admitted were provided with food. Patients who reported that they have not eaten within two hours to prior dose intake were instructed to eat as soon as possible. Patients were seen by the clinical officer on days 0, 1, 2, 3, 7, 14, 28, and 42. A blood sample for pharmacokinetic measurement was taken at baseline (pre-dose on day 0) and on days 1, 2, and 7 at pre-defined random times after the last dosing. At each visit, a filter paper sample and a thin and thick smear were taken, in addition to axillary temperature, respiratory rate and haemoglobin measurements (only on days 0, 28 and 42) as well as evaluation of symptoms (e.g. headache, vomiting, and diarrhea). The exact dose and time of last drug intake, body weight, height, age, sex, food intake and concomitant medications were carefully recorded. If patients suffered from concomitant illnesses they were provided with additional treatment (paracetamol, mebendazole, metronidazole, cloxacillin, amoxicillin). Samples of 2 ml of venous blood were collected on an EDTA Vacutainer and kept on ice for no longer than 6 h after withdrawal and then aliquoted into whole blood, plasma and pellet and immediately stored in liquid nitrogen or a -80°C freezer. […] The laboratory is part of the quality control system of the World-Wide Antimalarial Resistance Network (WWARN). The pharmacokinetic analysis for each drug taken separately was performed using the NONMEM computer program Version 6 (NM-TRAN version II). It uses mixed (fixed and random) effects regression to estimate population means and variances of the pharmacokinetic parameters and to identify factors that influence them. One-, two- and three-compartment pharmacokinetic models with first-order absorption, with and without absorption lag times, were compared. Additional one or two-compartments were used for anti-malarials presenting metabolite concentrations (AM and LF). The final parameters estimated were systemic clearance (CL/F), inter-compartmental clearance (Q/F), central volume of distribution (VC/F), peripheral volume of distribution (VP/F) and absorption rate constant (ka). Since no intravenous drug concentration data were available, these parameters represent apparent values. Where available, metabolite data were included into the model and metabolism rate constant from drug compartment to metabolite compartment (k23) and metabolite clearance (CLmet) were also estimated. Owing to identifiability problems, the volume of distribution of the metabolites (VM) DLF and DHA were assumed to equal LF and AM VC, respectively. […] The observed baseline residual plasma concentrations were fitted by estimating a factor (F0) that provided an estimation of the residual doses from previous treatment. […] Proportional and combined proportional-and-additive error models were compared to describe intra-patient (residual) variability for the mother compound, and if available for its metabolite using Cpij(1 + ε1ij) + ε2ij or Cmij(1 + ε3ij) + ε4ij, where Cpij are the corresponding predicted i^th drug plasma concentration and Cmij are the predicted metabolite concentration for the j^th individual, and ε1ij, ε2ij, ε3ij, ε4ij, are independent normally distributed residual error terms with a mean of zero and a variance of σ^2_1, σ^2_2, σ^2_3, σ^2_4. The covariate analysis was performed using a stepwise insertion/deletion approach. […]

[2] = cited from earlier work
malaria [3] = system: malaria; parameters: method as in earlier work; conditions: listed as LF, cited from earlier work
clinical = conditions: human, in vivo
Protocol: The second study was conducted during October 2007 to February 2008 at the Phnom Dék Health Centre, Rovieng district, Preah Vihear province, Cambodia. Entry criteria and study procedures were identical as in the Tanzanian study with minor adaptations described below. […] Pregnant or lactating women were excluded. Three doses of AS (Arsumax®, Sanofi-Aventis, France) and MQ (Eloquine®, Medochemie Ltd, Cyprus) were given according to body weight on three consecutive days (see Table 1). Patients were seen by the clinical officer on days 1, 2, 3, 7, 14, 21, 28, 35 and 42. Sampling for the pharmacokinetic study was done at pre-dose and approximately 1 h after first dose intake on day 0, and on days 1, 2, 7 and 14 at pre-defined random times after drug intake.
Samples of 2 ml of venous blood were collected on an EDTA Vacutainer and kept on ice for no longer than 6 h after withdrawal and then aliquoted into whole blood, plasma and pellet and immediately stored in liquid nitrogen or a –80°C freezer. […] The method was validated according to FDA recommendations, including assessment of extraction yield, matrix effect variability, overall process efficiency, standard addition experiments as well as anti-malarials short- and long-term stability in plasma. […] The laboratory is part of the quality control system of the World-Wide Antimalarial Resistance Network (WWARN).
The pharmacokinetic analysis for each drug taken separately was performed using the NONMEM computer program Version 6 (NM-TRAN version II). It uses mixed (fixed and random) effects regression to estimate population means and variances of the pharmacokinetic parameters and to identify factors that influence them.
One-, two- and three-compartment pharmacokinetic models with first-order absorption, with and without absorption lag times, were compared. Additional one or two-compartments were used for anti-malarials presenting metabolite concentrations (AM and LF). The final parameters estimated were systemic clearance (CL/F), inter-compartmental clearance (Q/F), central volume of distribution (VC/F), peripheral volume of distribution (VP/F) and absorption rate constant (ka). Since no intravenous drug concentration data were available, these parameters represent apparent values. Where available, metabolite data were included into the model and metabolism rate constant from drug compartment to metabolite compartment (k23) and metabolite clearance (CLmet) were also estimated. Owing to identifiability problems, the volume of distribution of the metabolites (VM) DLF and DHA were assumed to equal LF and AM VC, respectively. […] The observed baseline residual plasma concentrations were fitted by estimating a factor (F0) that provided an estimation of the residual doses from previous treatment.
Exponential errors following a log-normal distribution were assumed for the description of inter-patient variability of the pharmacokinetic parameters and were of the form: θi=θ×e^ηj where θi is the individual pharmacokinetic parameter value in the j^th individual, θ is the population parameter estimate, and ηj is the random effect value, which is independently and normally distributed with a mean of 0 and variance ω^2. Proportional and combined proportional-and-additive error models were compared to describe intra-patient (residual) variability for the mother compound, and if available for its metabolite using Cpij(1 + ϵ1ij) + ϵ2ij or Cmij(1 + ϵ3ij) + ϵ4ij, where Cpij are the corresponding predicted i^th drug plasma concentration and Cmij are the predicted metabolite concentration for the j^th individual, and ϵ1ij, ϵ2ij, ϵ3ij, ϵ4ij, are independent normally distributed residual error terms with a mean of zero and a variance of σ^2_1, σ^2_2, σ^2_3, σ^2_4.
The covariate analysis was performed using a stepwise insertion/deletion approach. […]

malaria [4] = system: malaria; parameters: method as in PMID 10579474; conditions: cited from earlier work
[5] = bootstrap evaluation, 200 replicates
[6] = patients, age 7.7 ± 1.4 years, n 13, sampling 28 days
[7] = patients, median age 4.0 (1–10) years, n 50, sampling 72 h
[8] = patients, median age 20 (5–66) years, n 309
[9] = patients, median age 22 (14–60) years, n 217
[10] = patients, median age 23 (13–59) years, n 102
[11] = pregnant women, median age 24 (15–42) years, n 103, sampling 336 h
[12] = patients, median age 9.3 (4–15) years, n 74, sampling 28 days
[13] = patients, median age 14.8 (8–61) years, n 128, sampling 28 days
[14] = patients, median age 19 (2–55) years, n 50, sampling 63 days
[15] = prophylaxis, mean age 26 (18–55) years, n 1,111, sampling 26 weeks

patients with a concentration below the cut-off value of 175 ng/ml ([1]; Tanzanian sample of this study, day 7): 35%
F0, bootstrap mean of 200 [1, 5]: 2.45 mg
k23, bootstrap mean of 200 [1, 5]: 0.00037 h⁻¹
ka, bootstrap mean of 200 [1, 5]: 0.48 h⁻¹
θBWCL, bootstrap mean of 200 [1, 5]: 0.51
θBWVC, bootstrap mean of 200 [1, 5]: 0.34
σC (CV%), bootstrap mean of 200 [1, 5]: 61%
IIV (inter-individual variability) of CL ([1]; final model): 38%
IIV (inter-individual variability) of F0 ([1]; final model): 103%
IIV (inter-individual variability) of VC ([1]; final model): 33%
IIV (inter-individual variability) of k23 ([1]; final model): 38%
ka (first-order absorption rate constant), population estimate ([1]; final model): 0.54 h⁻¹
θBWVC, exponent of allometric power function of body weight on VC, population estimate ([1]; final model): 0.35
F0 (residual amount from the previous treatment), population estimate ([1]; final model, baseline): 2.53 mg
σC (CV%), residual error for the central compartment, population estimate ([1]; final model, intra-patient variability): 60%
k23 (metabolism rate constant), population estimate ([1]; final model, parent to metabolite (AM to DHA, LF to DLF)): 0.00037 h⁻¹
residual dose (F0) as percentage of the recommended first dose ([1]; first dose 120–480 mg): 0.3–1.3%
clearance ([1]; human, plasma, oral, present study, Tanzanian patients, sampling 7 days): 128 mL/min
Vd ([1]; human, plasma, oral, present study, Tanzanian patients, sampling 7 days, read-out: VSS (steady-state volume of distribution), population estimate for a person of 70 kg): 265 L
Structure (SMILES): CCCCN(CCCC)CC(O)c1cc(Cl)cc2c1-c1ccc(Cl)cc1/C2=C/c1ccc(Cl)cc1 (centres unmarked) [Lumefantrine, lumefantrine]
CL, population estimate for a person of 70 kg [2, 6]: 7.29 L/h
VSS, population estimate for a person of 70 kg [2, 6]: 506 L
CL, population estimate for a person of 70 kg [2, 7]: 5.4 L/h
VSS, population estimate for a person of 70 kg [2, 7]: 623 L
CL, population estimate for a person of 70 kg [2, 8]: 7.6 L/h
VSS, population estimate for a person of 70 kg [2, 8]: 361 L
CL, population estimate for a person of 70 kg [2, 9]: 21 L/h
VSS, population estimate for a person of 70 kg [2, 9]: 301 L
CL, population estimate for a person of 70 kg [2, 10]: 7 L/h
VSS, population estimate for a person of 70 kg [2, 10]: 298 L
CL, population estimate for a person of 70 kg [2, 11]: 8.7 L/h
VSS, population estimate for a person of 70 kg [2, 11]: 257 L
efficacy rates at 42 days for a day 7 concentration cut-off of 50 ng/ml (malaria [3]; high transmission areas): 80% and 95%
efficacy rates at 42 days for a day 7 concentration cut-off of 125 ng/ml (malaria [3]; low transmission areas): 84% and 96%

CL (clearance), population estimate (clinical): 0.10 × BW^0.75 L/h/kg
CL, bootstrap mean of 200 (clinical): 0.10 × BW^0.75 L/h/kg
F0 (residual amount from the previous treatment), population estimate (clinical): 33.1 mg
F0, bootstrap mean of 200 (clinical): 31.0 mg
IIV (inter-individual variability) of CL (clinical): 12%
IIV (inter-individual variability) of F0 (clinical): 175%
IIV (inter-individual variability) of VC (clinical): 19%
VC (central volume of distribution), population estimate (clinical): 8.93 × BW L/kg
VC, bootstrap mean of 200 (clinical): 9.01 × BW L/kg
Vd (clinical): 625 L
clearance (clinical): 40 mL/min
inter-individual variability in concentration exposure (clinical): ~12%
ka (first-order absorption rate constant), population estimate (clinical): 0.15 h⁻¹
ka, bootstrap mean of 200 (clinical): 0.15 h⁻¹
residual dose (F0) as percentage of an initial dose (clinical): 6.7–26.7%
σC, bootstrap mean of 200 (clinical): 43%
σC, residual error for the central compartment, population estimate (clinical): 43%
Structure (SMILES): OC(c1cc(C(F)(F)F)nc2c(C(F)(F)F)cccc12)C1CCCCN1 (centres unmarked) [Mefloquine, mefloquine]
CL, population estimate for a person of 70 kg [2, 12]: 3.71 L/h
VSS, population estimate for a person of 70 kg [2, 12]: 1,089.2 L
CL, population estimate for a person of 70 kg [2, 13]: 1.4 L/h
VSS, population estimate for a person of 70 kg [2, 13]: 574.7 L
CL, population estimate for a person of 70 kg [2, 14]: 2.1 L/h
VSS, population estimate for a person of 70 kg [2, 14]: 767.62 L
CL, population estimate for a person of 70 kg [2, 15]: 1.75 L/h
VSS, population estimate for a person of 70 kg [2, 15]: 863 L
minimal inhibitory concentration, MIC (drug plasma concentration) (malaria [4]): 0.5 µg/mL (≈ 1.32 µM)
